Source: patent US5945440A, “Indolocarbazole imides and the use thereof” (priority 1992, dated 1999)

How the values were obtained:
[1] = molecular target: T1, MLC kinase (myosin light-chain kinase) (Gallus gallus, UniProt P11799); test: inhibition of MLC kinase, in vitro enzyme test (32P phosphate incorporation); assay type: biochemical, chicken (stomach); details: for IC50: 1 nM MLC kinase, 250 μM ATP, pH 7.2, 20 minutes at 30° C., read-out: inhibition of the protein kinases, MLC-kinase IC50; for ratio of IC50 C-kinase/IC50 MLC-kinase: selectivity factor calculated from the IC50 values
T1 construct: MLC kinase was purified from chicken stomach; from tissue; host or cells: chicken stomach (gizzard smooth muscle)

[2] = molecular target: protein kinase C; test: inhibition of protein kinase C, enzyme test; assay type: biochemical; details: read-out: inhibition of the protein kinases, C-kinase IC50
Procedure: In order to ascertain whether it is a question of a selective inhibition of MLC kinase, the compounds were also investigated in other enzyme tests for protein kinase, including tests for protein kinase C. The results from the PKC test are also given in the following Table I. Furthermore, the Table contains selectivity factors which were calculated by the determination of the ratios of the IC50 values.

T1 sequence (P11799 935-1906): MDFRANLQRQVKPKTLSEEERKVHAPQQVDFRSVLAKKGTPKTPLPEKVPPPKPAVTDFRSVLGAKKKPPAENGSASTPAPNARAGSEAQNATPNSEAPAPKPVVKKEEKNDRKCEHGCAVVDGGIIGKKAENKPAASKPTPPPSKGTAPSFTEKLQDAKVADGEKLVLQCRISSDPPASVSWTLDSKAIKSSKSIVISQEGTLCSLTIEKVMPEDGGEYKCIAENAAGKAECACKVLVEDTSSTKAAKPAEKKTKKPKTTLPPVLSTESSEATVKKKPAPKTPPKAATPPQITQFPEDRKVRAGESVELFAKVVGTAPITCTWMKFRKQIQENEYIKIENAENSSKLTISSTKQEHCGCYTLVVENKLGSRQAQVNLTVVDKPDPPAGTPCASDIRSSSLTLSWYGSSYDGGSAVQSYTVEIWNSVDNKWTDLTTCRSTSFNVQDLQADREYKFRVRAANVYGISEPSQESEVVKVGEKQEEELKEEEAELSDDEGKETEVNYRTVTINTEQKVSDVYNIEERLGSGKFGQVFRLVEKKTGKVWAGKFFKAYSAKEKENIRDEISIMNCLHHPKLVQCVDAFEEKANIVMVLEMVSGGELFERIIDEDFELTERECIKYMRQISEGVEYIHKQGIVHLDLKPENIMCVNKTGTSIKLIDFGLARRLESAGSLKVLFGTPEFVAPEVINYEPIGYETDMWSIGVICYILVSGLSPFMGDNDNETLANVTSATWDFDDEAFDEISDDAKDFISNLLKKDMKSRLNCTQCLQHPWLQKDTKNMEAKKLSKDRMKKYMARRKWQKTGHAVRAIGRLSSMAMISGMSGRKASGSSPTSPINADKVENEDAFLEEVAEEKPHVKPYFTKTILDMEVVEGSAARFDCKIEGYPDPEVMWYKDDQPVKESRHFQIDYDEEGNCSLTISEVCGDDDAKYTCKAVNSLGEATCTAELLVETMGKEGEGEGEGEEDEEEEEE

| Compound | IC50 [1] [µM] | ratio of IC50 C-kinase/IC50 MLC-kinase [1] | IC50 [2] [µM] |
| --- | --- | --- | --- |
| 12-(3-dimethylaminopropyl)-6,7,12,13-tetrahydro-3(9)-hydroxy-9(3)-methoxy- 5,7-dioxo-5H-indolo[2,3-a]pyrrolo[3,4-c]carbazole [Example 2d] | 0.016 | 2.4 | 0.038 |
| CCN(CC)CC(O)Cn1c2ccccc2c2c3c(c4c5ccccc5[nH]c4c21)C(=O)NC3=O (racemic) [Example 6, (±)-12-(3-Diethylamino-2-hydroxy-1-propyl)-6,7,12,13-tetrahydro-5,7-dioxo-5H-indolo[2,3-a]pyrrolo[3,4-c]-carbazole] | 0.17 | 2.9 | 0.5 |
| COc1ccc2c(c1)c1c3c(c4c5ccccc5n(C)c4c1n2CC(O)CN(C)C)C(=O)NC3=O (racemic) [Example 10b, (±)-13-(3-dimethylamino-2-hydroxy-1-propyl)-6,7,12,13-tetrahydro-3-methoxy-12-methyl-5,7-dioxo-5H-indolo[2,3-a]pyrrolo[3,4-c]carbazole] | 0.12 | 0.033 | 0.004 |
| COc1ccc2c(c1)c1c3c(c4c5ccccc5n(CCC#N)c4c1n2C)C(=O)NC3=O [Example 1b, 12-(2-cyanoethyl)-6,7,12,13-tetrahydro-3-methoxy-13-methyl-5,7-dioxo-5H-indolo[2,3-a]pyrrolo[3,4-c]-carbazole] | 0.049 | 0.7 | 0.035 |
| COc1ccc2c(c1)c1c3c(c4c5cc(OC)ccc5n(CCC#N)c4c1n2C)C(=O)NC3=O [Example 1c, 12-(2-cyanoethyl)-6,7,12,13-tetrahydro-3,9-dimethoxy-13-methyl-5,7-dioxo-5H-indolo[2,3-a]pyrrolo[3,4-c]-carbazole] | 0.18 | 0.1 | 0.019 |
| COc1ccc2c(c1)c1c3c(c4c5ccccc5n(CCCC#N)c4c1n2C)C(=O)NC3=O [Example 1h, 12-(3-cyanopropyl)-6,7,12,13-tetrahydro-3-methoxy-13-methyl-5,7-dioxo-5H-indolo[2,3-a]pyrrolo[3,4-c]-carbazole] | 0.024 | 1 | 0.024 |
| COc1ccc2c(c1)c1c3c(c4c5ccccc5n(C)c4c1n2CCCN(C)C)C(=O)NC3=O [Example 1k, 13-(3-Dimethylaminopropyl)-6,7,12,13-tetrahydro-3-methoxy-12-methyl-5,1-dioxo-5H-indolo[2,3-a]pyrrolo-[3,4-c]carbazole] | 0.061 | 7.2 | 0.44 |
| COc1ccc2c(c1)c1c3c(c4c5cc(Cl)ccc5n(CCC#N)c4c1n2C)C(=O)NC3=O [Example 1n, 3-chloro-13-(2-cyanoethyl)-6,7,12,13-tetrahydro-9-methoxy-12-methyl-5,7-dioxo-5H-indolo[2,3-a]pyrrolo-[3,4-a]carbazole] | 0.032 | 0.6 | 0.02 |
| COc1cc2c3c4c(c5c6ccccc6n(C)c5c3n(CCC#N)c2cc1OC)C(=O)NC4=O [Example 1o, 13-(2-cyanoethyl)-6,7,12,13-tetrahydro-2,3-dimethoxy-12-methyl-5,7-dioxo-5H-1-indolo[2,3-a]pyrrolo-[3,4-c]carbazole] | 0.017 | 0.4 | 0.0067 |
| COc1ccc2c(c1)c1c3c(c4c5ccccc5n(C)c4c1n2CCCC#N)C(=O)NC3=O [Example 1q, 13-(3-cyanopropyl)-6,7,12,13-tetrahydro-3-methoxy-12-methyl-5,7-dioxo-5H-indolo[2,3-a]pyrrolo[3,4-c]-carbazole] | 0.032 | 0.15 | 0.0047 |
| COc1ccc2c(c1)c1c3c(c4c5cc(OC)ccc5n(CCCC#N)c4c1n2C)C(=O)NC3=O [Example 1r, 12-(3-cyanopropyl)-6,7,12,13-tetrahydro-3,9-dimethoxy-13-methyl-5,7-dioxo-5H-indolo[2,3-a]pyrrolo-[3,4-c]carbazole] | 0.029 | 0.6 | 0.017 |
| COc1ccc2c(c1)c1c3c(c4c5cc(OC)c(OC)cc5n(CCC#N)c4c1n2C)C(=O)NC3=O [Example 1s, 13-(2-cyanoethyl)-6,7,12,13-tetrahydro-2,3,9-trimethoxy-12-methyl-5,7-dioxo-5H-indolo[2,3-a]pyrrolo-[3,4-c]carbazole] | 0.033 | 0.7 | 0.024 |
| COc1ccc2c3c4c(c5c6ccccc6n(C)c5c3n(CCC#N)c2c1)C(=O)NC4=O [Example 1u, 13-(2-cyanoethyl)-6,7,12,13-tetrahydro-2-methoxy-12-methyl-5,7-dioxo-5H-indolo[2,3-a]pyrrolo[3,4-c]-carbazole] | 0.54 | 8.7 | 4.7 |
| COc1ccc2c(c1)c1c3c(c4c5ccccc5n(CCCN(C)C)c4c1n2C)C(=O)NC3=O [Example 1y, 12-(3-dimethylaminopropyl)-6,7,12,13-tetrahydro-3-methoxy-13-methyl-5,7-dioxo-5H-indolo[2,3-a]pyrrolo-[3,4-c]carbazole] | 0.0076 | 4.1 | 0.031 |
| COc1cc2c3c4c(c5c6ccccc6n(C)c5c3n(CCCN(C)C)c2cc1OC)C(=O)NC4=O [Example 1z, 13-(3-dimethylaminopropyl)-6,7,12,13-tetrahydro-2,3-dimethoxy-12-methyl-5,7-dioxo-5H-indolo[2,3-a]-pyrrolo[3,4-c]carbazole] | 0.02 | 1.3 | 0.026 |
| Cn1c2ccccc2c2c3c(c4c5cc(O)c(O)cc5n(CCC#N)c4c21)C(=O)NC3=O [Example 2b, 13-(2-cyanoethyl)-6,7,12,13-tetrahydro-2,3-dihydroxy-12-methyl-5,7-dioxo-5H-indolo[2,3-a]pyrrolo[3,4-c]-carbazole] | 0.032 | 7.2 | 0.23 |

Second part, the compound after the results:

| IC50 [1] [µM] | ratio of IC50 C-kinase/IC50 MLC-kinase [1] | IC50 [2] [µM] | Compound |
| --- | --- | --- | --- |
| 0.37 | 0.3 | 0.12 | CCN(CC)CC(O)Cn1c2ccccc2c2c3c(c4c5ccccc5n(C)c4c21)C(=O)NC3=O (racemic) [Example 10a, (±)-12-(3-diethylamino-2-hydroxy-1-propyl)-6,7,12,13-tetrahydro-13-methyl-5,7-dioxo-5H-indolo-[2,3-a]pyrrolo[3,4-c]carbazole] |
| 0.055 | 0.7 | 0.038 | Cn1c2ccccc2c2c3c(c4c5ccccc5n(CCC#N)c4c21)C(=O)NC3=O [Example 1a, 12-(2-cyanoethyl)-6,7,12,13-tetrahydro-13-methyl-5,7-dioxo-5H-indolo[2,3-a]pyrrolo[3,4-c]carbazole] |
| 0.062 | 0.6 | 0.035 | CC(CC#N)n1c2ccccc2c2c3c(c4c5ccccc5n(C)c4c21)C(=O)NC3=O (stereo not drawn) [Example 1d, 12-(3-cyano-2-propyl)-6,7,12,13-tetrahydro-13-methyl-5,7-dioxo-5H-indolo[2,3-a]pyrrolo[3,4-c]carbazole] |
| 0.017 | 0.8 | 0.014 | Cn1c2ccccc2c2c3c(c4c5ccccc5n(CC#N)c4c21)C(=O)NC3=O [Example 1e, 12-cyanomethyl-6,7,12,13-tetrahydro-13-methyl-5,7-dioxo-5H-indolo[2,3-a]pyrrolo[3,4-c]carbazole] |
| 0.022 | 1.6 | 0.036 | Cn1c2ccccc2c2c3c(c4c5ccccc5n(CCCC#N)c4c21)C(=O)NC3=O [Example 1g, 12-(3-cyanopropyl)-6,7,12,13-tetrahydro-13-methyl-5,7-dioxo-5H-indolo[2,3-a]pyrrolo[3,4-c]carbazole] |
| 0.045 | 11.1 | 0.5 | CN(C)CCCn1c2ccccc2c2c3c(c4c5ccccc5n(C)c4c21)C(=O)NC3=O [Example 1j, 12-(3-dimethylaminopropyl)-6,7,12,13-tetrahydro-13-methyl-5,7-dioxo-5H-indolo[2,3-a]pyrrolo[3,4-c]-carbazole] |
| 0.13 | 0.4 | 0.05 | Cn1c2ccccc2c2c3c(c4c5ccccc5n(CCCN=[N+]=[N-])c4c21)C(=O)NC3=O [Example 1l, 12-(3-azidopropyl)-6,7,12,13-tetrahydro-13-methyl-5,7-dioxo-5H-indolo[2,3-a]pyrrolo[3,4-c]carbazole] |
| 0.0072 | 7.2 | 0.052 | CN(C)CCn1c2ccccc2c2c3c(c4c5ccccc5n(C)c4c21)C(=O)NC3=O [Example 1x, 12-(2-dimethylaminoethyl)-6,7,12,13-tetrahydro-13-methyl-5,7-dioxo-5H-indolo[2,3-a]pyrrolo[3,4-c]carbazole] |
| 0.019 | 1.3 | 0.024 | Cn1c2ccccc2c2c3c(c4c5cc(O)ccc5n(CCC#N)c4c21)C(=O)NC3=O [Example 2, 13-(2-Cyanoethyl)-6,7,12,13-tetrahydro-3-hydroxy-12-methyl-5,7-dioxo-5H-indolo[2,3-a]pyrrolo[3,4-c]-carbazole] |
| 0.018 | 1.7 | 0.031 | Cn1c2ccc(O)cc2c2c3c(c4c5ccccc5n(CCC#N)c4c21)C(=O)NC3=O [Example 2a, 12-(2-cyanoethyl)-6,7,12,13-tetrahydro-3-hydroxy-13-methyl-5,7-dioxo-5H-indolo[2,3-a]pyrrolo[3,4-c]-carbazole] |
